In one assay the target is T1, MycN Protein (Homo sapiens, UniProt P04198).
T1 construct: endogenous in cells; host or cells: HL-60 or SKNBE2
T1 sequence (P04198 1-464): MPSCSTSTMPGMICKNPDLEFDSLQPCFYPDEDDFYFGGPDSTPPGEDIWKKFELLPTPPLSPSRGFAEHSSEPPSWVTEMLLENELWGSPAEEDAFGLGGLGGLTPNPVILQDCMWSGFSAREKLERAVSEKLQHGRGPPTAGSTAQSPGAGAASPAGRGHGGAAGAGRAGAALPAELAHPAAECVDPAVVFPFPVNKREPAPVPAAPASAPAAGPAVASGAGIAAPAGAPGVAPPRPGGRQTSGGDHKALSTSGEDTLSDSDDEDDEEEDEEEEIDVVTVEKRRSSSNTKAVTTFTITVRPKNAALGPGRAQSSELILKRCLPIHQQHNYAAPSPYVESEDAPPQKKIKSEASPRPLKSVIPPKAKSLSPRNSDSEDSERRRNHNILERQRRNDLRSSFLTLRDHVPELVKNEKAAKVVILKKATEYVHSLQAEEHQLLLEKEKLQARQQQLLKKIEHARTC
Description: Degradation of MycN protein, Western blot band density in cells. The assay is classed as cell-based. The note with it: HL-60 or SKNBE2 cells; 6 uL of compound (1 mM) added to 3 mL cells; 6 hours; Western blot band density (ImageJ). The protocol: (§1) In a T150 flask was plated either 2×10^6 of HL-60 (human leukemia cell line) or SKNBE2 (neuroblastoma cell line) cells in a total of 30 mL containing Roswell Park Memorial Institute (RPMI) 1640 Medium (Thermo Fisher, Cat. #11875-085), 10% Fetal Bovine Serum (FBS, Thermo Fisher: Cat. #10437-028), 1% Penicillin/streptomycin (Thermo Fisher: Cat. #10378016), and 1% Amophotericin B (Thermo Fisher, Cat. #15290026). The cells were split every 72 hours by reseeding the HL-60 or SKNBE2 cells, and the passage number was noted. It is noteworthy that cell cultures that were above 40 passages were not used, and most experiments were done with cells of less than 30 passages.
(§2) In a 6-well cell culture plate, a total of 3 mL of either 1×10^6 cells/mL of HL-60 or SKNBE2 cells were seeded, resulting in a total of 3×10^6 cells per well. To each well containing 3 mL of either HL-60 or SKNBE2 cell line was added 6 uL of MycN modulating compound (1 mM) and the resulting plate was shaken from left to right, and not swirled. After 6 hours, the cells were placed in a 15 mL falcon tube and spun at 500 Gs at 4° C. in a swinging bucket centrifuge. The medium was then carefully removed without disturbing the pellet. The pellet was then washed with 3 mLs of chilled phosphate buffered saline (PBS) and subjected to the spin cycle. PBS was then removed and the pellet was lysed in 200 uL of radioimmunoprecipitation (RIPA) lysis buffer (Thermo Fisher: Cat. #899000) that is supplemented with protease and phosphatase inhibitors (Thermo Fisher: Cat. #A32959). The cell lysate was then subjected to spinning in a centrifuge for 10 minutes at 13000G at 4° C. The supernatant was then carefully transferred to a fresh eppendorf tube without disturbing the pellet (˜180 uL). The protein concentration of the cell lysate was then determined by using a bicinchoninic acid (BCA assay) according to manufacturer's protocol (Thermo Fisher: Cat. #23227).
(§3) Cell lysate, approximately 25 ug-30 ug, was loaded per well in a 4-20% polyacrylamide gel (Biorad. Cat. #5671094). After running the dye front off of the gel, the gel was transferred to a nitrocellulose membrane (Biorad: Cat. #1704159) using the transblot turbo system (Biorad: Cat. #1704150) according to manufacturer's protocol. After transferring for 30 minutes, the membrane was blocked with 5% BSA for 1 hour at room temperature. The BSA was then washed off and the primary antibody of choice (1:500) was added, and the membrane was incubated with the primary antibody at 4° C. for overnight. The next morning, the primary antibody was removed and the membrane was washed with 1×-TBST for 10 minutes and repeated three more times. Following the last wash, a secondary antibody (Molecular Devices. Cat. #R8209 or R8208) was added at 1:5000 dilution and incubated for 1 hour at room temperature. Following the incubation with the secondary antibody, the membrane was washed with 1×-TBST for 10 minutes and repeated three more times. Following the last wash, the membrane was washed with de-ionized water twice and dried for at least two hours. Once the membrane is completely dry, the Molecular Devices Spectra Max western system was used to observe the bands. The western image was saved and the band density was measured with ImageJ software.
On the technique in general: A western blot detects proteins with antibodies after separation by electrophoresis.

In the next assay the target is T2, MycC Protein (Homo sapiens, UniProt P01106).
T2 construct: endogenous in cells; host or cells: HL-60 or SKNBE2
T2 sequence (P01106 whole entry): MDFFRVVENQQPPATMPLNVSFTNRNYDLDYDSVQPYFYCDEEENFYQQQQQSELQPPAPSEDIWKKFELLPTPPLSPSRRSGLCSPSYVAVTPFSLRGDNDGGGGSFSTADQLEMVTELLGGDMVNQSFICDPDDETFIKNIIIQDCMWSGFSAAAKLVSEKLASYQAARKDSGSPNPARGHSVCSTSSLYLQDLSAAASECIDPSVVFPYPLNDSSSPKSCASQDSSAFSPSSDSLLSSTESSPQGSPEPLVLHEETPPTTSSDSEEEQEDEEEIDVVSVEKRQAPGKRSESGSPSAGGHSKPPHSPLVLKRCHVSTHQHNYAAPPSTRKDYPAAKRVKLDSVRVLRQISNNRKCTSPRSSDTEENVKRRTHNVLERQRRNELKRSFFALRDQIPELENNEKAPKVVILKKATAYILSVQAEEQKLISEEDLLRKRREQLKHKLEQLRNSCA
Description: Degradation of MycC protein, Western blot band density in cells. The assay is classed as cell-based. The note with it: HL-60 or SKNBE2 cells; 6 uL of compound (1 mM) added to 3 mL cells; 6 hours; Western blot band density (ImageJ). The protocol: as §1, §2, §3

This passage reports Dmax results from patent publication US20210369710A1, “MODULATORS OF MYC FAMILY PROTO-ONCOGENE PROTEIN” (Nalo Therapeutics, priority 2019, published 2021).

Each structure is given as a SMILES string.

By Dmax is commonly meant the greatest extent of degradation seen.

For the molecule `O=C(NC1COC1)N[C@H]1CC[C@H](Nc2nccc(Nc3cc(C4CCCC4)[nH]n3)n2)CC1` [Compound 46], the Dmax at 2 µM was 20 to 49% at MycN Protein and under 20% on MycC Protein.
The like results for `O=C(NC1CC2(COC2)C1)N[C@H]1CC[C@H](Nc2nccc(Nc3cc(C4CCCC4)[nH]n3)n2)CC1` [Compound 47] were, in that order, under 20% and under 20%.
With `CC(=O)N1CC(NC(=O)N[C@H]2CC[C@H](Nc3nccc(Nc4cc(C5CCCC5)[nH]n4)n3)CC2)C1` [Compound 48, 1-(1-acetylazetidin-3-yl)-3-((1R,4R)-4-((4-((5-cyclopentyl-1H-pyrazol-3-yl)amino)pyrimidin-2-yl)amino)cyclohexyl)urea], the Dmax at 2 µM on MycN Protein was under 20%; on MycC Protein, 20 to 49%.
As to `O=C(NC1CCC2(CC1)COC2)N[C@H]1CC[C@H](Nc2nccc(Nc3cc(C4CCCC4)[nH]n3)n2)CC1` [Compound 49, 1-((1R,4R)-4-((4-((5-cyclopentyl-1H-pyrazol-3-yl)amino)pyrimidin-2-yl)amino)cyclohexyl)-3-(2-oxaspiro[3.5]nonan-7-yl)urea], the greatest degradation seen (Dmax) at 2 µM at MycN Protein and on MycC Protein was under 20% each time.
Turning to `O=C(N[C@H]1CC[C@H](Nc2nccc(Nc3cc(C4CCCC4)[nH]n3)n2)CC1)N[C@H]1C[C@H](c2ccccc2)C1` [Compound 52, 1-((1R,4R)-4-((4-((5-cyclopentyl-1H-pyrazol-3-yl)amino)pyrimidin-2-yl)amino)cyclohexyl)-3-(3-phenylcyclobutyl)urea], the Dmax at 2 µM on MycN Protein and on MycC Protein was 80 to 100% each time.
With `N#Cc1cccc([C@H]2C[C@H](NC(=O)N[C@H]3CC[C@H](Nc4nccc(Nc5cc(C6CCOC6)[nH]n5)n4)CC3)C2)c1` (some centres unmarked) [Compound 53], the Dmax at 2 µM at MycN Protein and at MycC Protein was under 20% in each case.
Regarding `CS(=O)(=O)N1CC(NC(=O)N[C@H]2CC[C@H](Nc3nccc(Nc4cc(C5CCCC5)[nH]n4)n3)CC2)C1` [Compound 56], the figures for the Dmax at 2 µM on MycN Protein and on MycC Protein were under 20% and 20 to 49%, respectively.
Regarding `CS(=O)(=O)[C@H]1C[C@H](NC(=O)N[C@H]2CC[C@H](Nc3nccc(Nc4cc(C5CCCC5)[nH]n4)n3)CC2)C1` [Compound 57], the greatest degradation seen (Dmax) at 2 µM was under 20% on MycN Protein and 50 to 79% at MycC Protein.
The like results for `O=C(NC1CCC(Nc2nccc(Nc3cc(C4CCCC4)[nH]n3)n2)CC1)NC1CCCN(C2CC2)C1` [Compound 60, 1-((1R,4R)-4-((4-((5-cyclopentyl-1H-pyrazol-3-yl)amino)pyrimidin-2-yl)amino)cyclohexyl)-3-(1-cyclopropylpiperidine-3-yl)urea] were, in that order, under 20% and 50 to 79%.
The like results for `O=C(NC1CCC(Nc2nccc(Nc3cc(C4CCCC4)[nH]n3)n2)CC1)NC1CCN(C2CC2)CC1` (centres unmarked) [Compound 63] were, in that order, 50 to 79% and 20 to 49%.
The like results for `O=C(NC1CCN(CCO)CC1)N[C@H]1CC[C@H](Nc2nccc(Nc3cc(C4CCCC4)[nH]n3)n2)CC1` [Compound 70, 1-((1R,4R)-4-((4-((5-cyclopentyl-1H-pyrazol-3-yl)amino)pyrimidin-2-yl)amino)cyclohexyl)-3-(1-(2-hydroxyethyl)piperidin-4-yl)urea] were, in that order, under 20% and 20 to 49%.
In the case of `O=C(NC1CCN(Cc2ccccn2)CC1)N[C@H]1CC[C@H](Nc2nccc(Nc3cc(C4CCCC4)[nH]n3)n2)CC1` [Compound 72, 1-((1R,4R)-4-((4-((5-cyclopentyl-1H-pyrazol-3-yl)amino)pyrimidin-2-yl)amino)cyclohexyl)-3-(1-(pyridin-2-ylmethyl)piperidin-4-yl)urea], the Dmax at 2 µM is under 20% at MycN Protein and 20 to 49% at MycC Protein.
The like results for `Cc1cc(Nc2ccnc(N[C@H]3CC[C@H](NC(=O)NC4CCN(Cc5ccccn5)CC4)CC3)n2)n[nH]1` [Compound 73, 1-((1R,4R)-4-((4-((5-methyl-1H-pyrazol-3-yl)amino)pyrimidin-2-yl)amino)cyclohexyl)-3-(1-(pyridin-2-ylmethyl)piperidin-4-yl)urea] were, in that order, under 20% and under 20%.
